How the values were obtained:
full-length NaChBac = target: T1, full-length NaChBac (Halalkalibacterium halodurans, UniProt Q9KCR8); assay: […]+ flux assay in proteoliposomes; assay type: biochemical
T1 construct: gene BH1501; full-length, hexa-histidine-tagged (pET-15b), expressed in E. coli C41(DE3), purified in Cymal-5, reconstituted in POPE:POPG liposomes
T1 sequence (Q9KCR8 1-274): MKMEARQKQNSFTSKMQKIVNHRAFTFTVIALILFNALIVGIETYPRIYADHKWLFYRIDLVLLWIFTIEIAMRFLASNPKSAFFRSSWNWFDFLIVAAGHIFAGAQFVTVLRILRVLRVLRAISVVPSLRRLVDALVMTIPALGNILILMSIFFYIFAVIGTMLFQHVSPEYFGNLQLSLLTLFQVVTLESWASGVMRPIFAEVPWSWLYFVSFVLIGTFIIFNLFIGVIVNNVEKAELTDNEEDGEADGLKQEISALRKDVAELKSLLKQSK

T1-chimera = tested on: T2, T1-chimera; assay: […]+ flux assay in proteoliposomes; assay type: biochemical, Halalkalibacterium halodurans; settings: estimated; block at 45 min, POPE:POPG 3:1 liposomes, 450 mM NaCl inside, pH 7.5; pore blocker
T2 construct: gene NaChBac; single-chain fusion: N-terminal His6 tag, human Kv1.2 T1 domain (1-145, MTV...NEF), then NaChBac TM domain printed as 9-239 (KQN...ELT; forward primer encodes QKQN, K8 is in QKQ, so start is probably Q7), CTD removed; E. coli C41(DE3); with Potassium voltage-gated channel subfamily A member 2

IC50 (full-length NaChBac): 2000 nM
IC50 (T1-chimera): 2000 nM
SMILES: COCC(=O)O[C@]1(CCN(C)CCCc2nc3ccccc3[nH]2)CCc2cc(F)ccc2[C@@H]1C(C)C [mibefradil]
